In US11976019B2 (Acuitas Therapeutics, Inc., priority 2020, dated 2024):
Marks after values point to notes of the source that are not given here.

Tests used:
[1] = system: luciferase expression in the liver; test: In vivo luciferase mRNA expression rodent model (liver luciferase after tail vein injection of mRNA-LNP); set-up: species or system mice (C57BL/6 or CD-1); conditions: liver 4 hours after administration, FLuc mRNA LNP; for Liver Luc @ 1.0 mg/kg: 1.0 mg mRNA/kg
Description: Lipid nanoparticles were prepared and tested according to the general procedures described in PCT Pub. Nos. WO 2015/199952 and WO 2017/004143, the full disclosures of which are incorporated herein by reference. Briefly, cationic lipid, DSPC, cholesterol and PEG-lipid were solubilized in ethanol at a molar ratio of about 50:10:38.5:1.5 or about 47.5:10:40.8:1.7. Lipid nanoparticles (LNP) were prepared at a total lipid to mRNA weight ratio of approximately 10:1 to 30:1. The mRNA is diluted to 0.2 mg/mL in 10 to 50 mM citrate or acetate buffer, pH 4. Syringe pumps were used to mix the ethanolic lipid solution with the mRNA aqueous solution at a ratio of about 1:5 to 1:3 (vol/vol) with total flow rates above 15 mL/min. The ethanol was then removed and the external buffer replaced with PBS by dialysis. Finally, the lipid nanoparticles were filtered through a 0.2 μm pore sterile filter. Lipid nanoparticle particle size was approximately 55-95 nm diameter, and in some instances approximately 70-90 nm diameter as determined by quasi-elastic light scattering using a Malvern Zetasizer Nano ZS (Malvern, UK).
Studies were performed in 6-8 week old female C57BL/6 mice (Charles River) or 8-10 week old CD-1 (Harlan) mice (Charles River) according to guidelines established by an institutional animal care committee (ACC) and the Canadian Council on Animal Care (CCAC). Varying doses of mRNA-lipid nanoparticle were systemically administered by tail vein injection and animals euthanized at a specific time point (e.g., 4 hours) post-administration. Liver and spleen were collected in pre-weighed tubes, weights determined, immediately snap frozen in liquid nitrogen and stored at −80° C. until processing for analysis.
For liver, approximately 50 mg was dissected for analyses in a 2 mL FastPrep tubes (MP Biomedicals, Solon Ohio). ¼″ ceramic sphere (MP Biomedicals) is added to each tube and 500 μL of Glo Lysis Buffer—GLB (Promega, Madison Wis.) equilibrated to room temperature is added to liver tissue. Liver tissues were homogenized with the FastPrep24 instrument (MP Biomedicals) at 2×6.0 m/s for 15 seconds. Homogenate was incubated at room temperature for 5 minutes prior to a 1:4 dilution in GLB and assessed using SteadyGlo Luciferase assay system (Promega). Specifically, 50 μL of diluted tissue homogenate was reacted with 50 μL of SteadyGlo substrate, shaken for 10 seconds followed by 5 minute incubation and then quantitated using a CentroXS^3 LB 960 luminometer (Berthold Technologies, Germany). The amount of protein assayed was determined by using the BCA protein assay kit (Pierce, Rockford Ill.). Relative luminescence units (RLU) were then normalized to total μg protein assayed. To convert RLU to ng luciferase a standard curve was generated with QuantiLum Recombinant Luciferase (Promega).
The FLuc mRNA (L-6107 or L-7202) from Trilink Biotechnologies will express a luciferase protein, originally isolated from the firefly, Photinus pyralis. FLuc is commonly used in mammalian cell culture to measure both gene expression and cell viability. It emits bioluminescence in the presence of the substrate, luciferin. This capped and poly-adenylated mRNA was fully substituted with respect to uridine and/or cytidine nucleosides.
Representative compounds of the disclosure shown in Table 2 were formulated using the following molar ratio: 50% cationic lipid/10% distearoylphosphatidylcholine (DSPC)/38.5% Cholesterol/1.5% PEG lipid 2-[2-(ω-methoxy(polyethyleneglycol2000)ethoxy]-N,N-ditetradecylacetamide) or 47.5% cationic lipid/10% DSPC/40.7% Cholesterol/1.8% PEG lipid. Relative activity was determined by measuring luciferase expression in the liver 4 hours following administration via tail vein injection as described in Example 1. The activity was compared at a dose of 1.0 or 0.5 mg mRNA/kg and expressed as ng luciferase/g liver measured 4 hours after administration, as described in Example 1. Compound numbers in Table 2 refer to the compound numbers of Table 1.

[2] = Determination of pKa of formulated lipids (TNS fluorescence assay in lipid nanoparticles); type: physicochemical; conditions: cationic lipid formulated in LNP (cationic lipid/DSPC/cholesterol/PEG-lipid 50/10/38.5/1.5 mol %); pH of half-maximal TNS fluorescence
Description: As described elsewhere, the pKa of formulated cationic lipids is correlated with the effectiveness of LNPs for delivery of nucleic acids (see Jayaraman et al, Angewandte Chemie, International Edition (2012), 51(34), 8529-8533; Semple et al, Nature Biotechnology 28, 172-176 (2010)). The preferred range of pKa is ˜5 to ˜7. The pKa of each cationic lipid was determined in lipid nanoparticles using an assay based on fluorescence of 2-(p-toluidino)-6-napthalene sulfonic acid (TNS). Lipid nanoparticles comprising cationic lipid/DSPC/cholesterol/PEG-lipid (50/10/38.5/1.5 mol %) in PBS at a concentration of 0.4 mM total lipid were prepared using the in-line process as described in Example 1. TNS was prepared as a 100 μM stock solution in distilled water. Vesicles were diluted to 24 μM lipid in 2 mL of buffered solutions containing, 10 mM HEPES, 10 mM IVIES, 10 mM ammonium acetate, 130 mM NaCl, where the pH ranged from 2.5 to 11. An aliquot of the TNS solution was added to give a final concentration of 1 μM and following vortex mixing fluorescence intensity was measured at room temperature in a SLM Aminco Series 2 Luminescence Spectrophotometer using excitation and emission wavelengths of 321 nm and 445 nm. A sigmoidal best fit analysis was applied to the fluorescence data and the pKa was measured as the pH giving rise to half-maximal fluorescence intensity.

[3] = system: luciferase expression in the liver; test: In vivo luciferase mRNA expression rodent model (liver luciferase after tail vein injection of mRNA-LNP); set-up: species or system mice (C57BL/6 or CD-1); conditions: liver 4 hours after administration, FLuc mRNA LNP

Row | pKa [2] | Compound | Liver Luc @ 1.0 mg/kg [1] [ng luc/g liver] | Liver Luc determined at 0.3 mg/kg [3] [ng luc/g liver] | Liver Luc determined at 0.5 mg/kg [1]
1 | 6.67 | CCCCCCCCOC(=O)CCN(CCCCCN(C)C)C(CCCCCCCCC(=O)OCC(CCCC)CCCCCC)CCCCCCCCC(=O)OCC(CCCC)CCCCCC (centres unmarked) [Compound I-2, bis(2-butyloctyl) 10-((5-(dimethylamino)pentyl)(3-(octyloxy)-3-oxopropyl)amino)nonadecanedioate] | 682 ± 147 | 122 ± 18 | –
2 | 5.96 | CCCCCCC(CCCC)COC(=O)CCCCCCCCC(CCCCCCCCC(=O)OCC(CCCC)CCCCCC)N(CCN(C)C)C(=O)CCCCC(=O)OC (centres unmarked) [Compound I-15, bis(2-butyloctyl) 10-(N-(2-(dimethylamino)ethyl)-6-methoxy-6-oxohexanamido)nonadecanedioate] | 21357 ± 15325 | – | –
3 | 6.11 | CCCCCCCCOC(=O)CCN(CCCCN(C)C)C(CCCCCCCCC(=O)OCC(CCCC)CCCCCC)CCCCCCCCC(=O)OCC(CCCC)CCCCCC (centres unmarked) [Compound I-1] | 24031 ± 4777 | – | –
4 | 6.48 | CCCCCCC(CCCC)COC(=O)CCCCCC(CCCCCC(=O)OCC(CCCC)CCCCCC)N(CCCC(=O)N(CCCCCC)CCCCCC)CCCN(C)C (centres unmarked) [Compound I-20, bis(2-butyloctyl) 7-((4-(dihexylamino)-4-oxobutyl)(3-(dimethylamino)propyl)amino)tridecanedioate] | 17095 ± 8181 | 4140 ± 1117 | –
5 | 6.78 | CCCCCCCCC(CCCCCC)COC(=O)CCCCCC(CCCCCC(=O)OCC(CCCCCC)CCCCCCCC)N(CCCN(C)C)C(=O)CCCCCCC(=O)OC (centres unmarked) [Compound I-17, bis(2-hexyldecyl) 7-(N-(3-(dimethylamino)propyl)-8-methoxy-8-oxooctanamido)tridecanedioate] | 26691 ± 13186 | – | –
6 | 5.95 | CCCCCCCCC(CCCCCC)COC(=O)CCCCCC(CCCCCC(=O)OCC(CCCCCC)CCCCCCCC)N(CCCC(=O)N(CCCCCC)CCCCCC)CCN(C)C (centres unmarked) [Compound I-19, bis(2-hexyldecyl) 7-((4-(dihexylamino)-4-oxobutyl)(2-(dimethylamino)ethyl)amino)tridecanedioate] | 32706 ± 4621 | – | –
7 | 6.8 | CCCCCCC(CCCC)COC(=O)CCCCCCCCC(CCCCCCCCC(=O)OCC(CCCC)CCCCCC)N(CCCN(C)C)C(=O)CCCCC(=O)OC (centres unmarked) [Compound I-14, bis(2-butyloctyl) 10-(N-(3-(dimethylamino)propyl)-6-methoxy-6-oxohexanamido)nonadecanedioate] | – | – | 669 ± 575* *determined at 0.5 mg/kg ng luc/g liver

The next lines start with the compound.

Row | Compound | pKa [2] | Liver Luc @ 1.0 mg/kg [1] [ng luc/g liver] | Liver Luc determined at 0.3 mg/kg [3] [ng luc/g liver] | Liver Luc determined at 0.5 mg/kg [1]
8 | CCCCCCC(CCCC)COC(=O)CCCCCCCCC(CCCCCCCCC(=O)OCC(CCCC)CCCCCC)N(CCCC(=O)N(CCCCCC)CCCCCC)CCCN(C)C (centres unmarked) [Compound I-21, bis(2-butyloctyl) 10-((4-(dihexylamino)-4-oxobutyl)(3-(dimethylamino)propyl)amino)nonadecanedioate] | 6.4 | 20223 ± 5982 | 7723 ± 1714 | –
9 | CCCCCCCCC(CCCCCC)C(=O)OCCCCCCN(CCCCN(C)C)C(CCCCCCCCC(=O)OCC(CCCC)CCCCCC)CCCCCCCCC(=O)OCC(CCCC)CCCCCC (centres unmarked) [Compound I-5, bis(2-butyloctyl) 10-((4-(dimethylamino)butyl)(6-((2-hexyldecanoyl)oxy)hexyl)amino)nonadecanedioate] | 6.08 | 11720 ± 2439 | – | –
10 | CCCCCCCCC(CCCCCC)COC(=O)CCCCCC(CCCCCC(=O)OCC(CCCCCC)CCCCCCCC)N(CCN(C)C)C(=O)CCCCC(=O)OC (centres unmarked) [Compound I-16, bis(2-hexyldecyl) 7-(N-(2-(dimethylamino)ethyl)-6-methoxy-6-oxohexanamido)tridecanedioate] | 6.25 | 66763 ± 15823 | – | –
11 | CCCCCCCCC(CCCCCC)C(=O)OCCCCCCN(CCCCN(C)C)C(CCCCCCCCC(=O)OCC(CC)CCCC)CCCCCCCCC(=O)OCC(CC)CCCC (centres unmarked) [Compound I-22, bis(2-ethylhexyl) 10-((4-(dimethylamino)butyl)(6-((2-hexyldecanoyl)oxy)hexyl)amino)nonadecanedioate] | 6.28 | 17654 ± 8167 | 5291 ± 1348 | –
12 | CCCCCCCCCN(CCCCN(C)C)C(CCCCCCCCC(=O)OCC(CCCC)CCCCCC)CCCCCCCCC(=O)OCC(CCCC)CCCCCC (centres unmarked) [Compound I-6] | 6.22 | 11290 ± 6455 | 4093 ± 1036 | –
13 | CCCCCCCCC(CCCCCC)COC(=O)CCCCCC(CCCCCC(=O)OCC(CCCCCC)CCCCCCCC)N(CCN(C)C)C(=O)CCCCCCC(=O)OC (centres unmarked) [Compound I-18, bis(2-hexyldecyl) 7-(N-(2-(dimethylamino)ethyl)-8-methoxy-8-oxooctanamido)tridecanedioate] | 6.02 | 40650 ± 11479 | – | –
14 | CCCCCCCCOC(=O)CCN(CCCCN(C)C)C(CCCCCC(=O)OCC(CCCCCC)CCCCCCCC)CCCCCC(=O)OCC(CCCCCC)CCCCCCCC (centres unmarked) [Compound I-4, bis(2-hexyldecyl) 7-((4-(dimethylamino)butyl)(3-(octyloxy)-3-oxopropyl)amino)tridecanedioate] | 6.17 | 46932 ± 17399 | – | –
15 | CCCCCCCCN(CCCCN(C)C)C(CCCCCCCCC(=O)OCC(CCCC)CCCCCC)CCCCCCCCC(=O)OCC(CCCC)CCCCCC (centres unmarked) [Compound I-23, bis(2-butyloctyl) 10-((4-(dimethylamino)butyl)(octyl)amino)nonadecanedioate] | 6.33 | – | – | 553 ± 153* *determined at 0.5 mg/kg ng luc/g liver
